In patent US8987207B2, “Peptides which have analgesic effects and which inhibit ASIC channels” (Centre National de la Recherche Scientifique—CNRS, priority 2010, dated 2015):
Bridges are numbered along the chain shown (N, C = ends). Where no end group is shown, it is not given here.

Columns and labels:
[1] = mice, central injection; cited from earlier work
[2] = target: T1, homomeric ASIC1a channels (Homo sapiens, UniProt P78348); conditions: read-out: concentration inhibiting 50% of the current produced by homomeric ASIC1a channels; cited from earlier work
T1 sequence (P78348 1-528): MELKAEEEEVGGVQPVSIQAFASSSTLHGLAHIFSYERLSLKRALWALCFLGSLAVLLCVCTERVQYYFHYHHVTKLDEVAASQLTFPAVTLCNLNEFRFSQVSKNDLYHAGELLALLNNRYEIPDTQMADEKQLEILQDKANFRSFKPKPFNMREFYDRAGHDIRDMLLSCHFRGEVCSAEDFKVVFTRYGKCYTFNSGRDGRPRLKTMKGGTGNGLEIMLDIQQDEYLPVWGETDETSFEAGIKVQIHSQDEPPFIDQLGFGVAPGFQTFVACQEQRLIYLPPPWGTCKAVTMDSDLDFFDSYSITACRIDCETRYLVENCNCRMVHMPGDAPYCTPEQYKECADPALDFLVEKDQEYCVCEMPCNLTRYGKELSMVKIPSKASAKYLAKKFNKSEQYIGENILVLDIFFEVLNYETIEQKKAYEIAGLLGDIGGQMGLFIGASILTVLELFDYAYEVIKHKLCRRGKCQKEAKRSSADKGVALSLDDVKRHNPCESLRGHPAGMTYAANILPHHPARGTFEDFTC

[3] = Toxicity after intracerebroventricular injection; type: in vivo; conditions: mice, ICV injection, even after 3 days
Experimental: The intracerebroventricular (ICV) injection of the ASICalgin-1 peptide was carried out in the third ventricle of the brain of mice (C57B16J, 7- to 11-week-old males) anesthetized with isoflurane (1.5%) using the following stereotaxic coordinates: −2.4 mm under the cortical surface, −0.5 mm in the anterior-posterior axis and +1.6 mm in the mediolateral axis relative to the bregma. The effects of an ICV injection of 5 μl of solution containing […] of ASICalgin-1 (0.34 nmol) were compared with the effects of 5 μl of saline solution vehicle (145 mM NaCl, 5 mM KCl, 2 mM CaCl2, 10 mM HEPES, pH 7.4, 0.05% bovine serum albumin) naxolone, an inhibitor of opioid receptors (especially μ-type), was injected subcutaneously at 2 mg/kg in 50 μl of 0.9% NaCl, ten minutes before the ICV injection of the ASICalgin-1 peptide.

[4] = Toxicity after intrathecal injection; type: in vivo; conditions: mice
[5] = Accelerating rotarod test (motor activity) after intrathecal injection; type: in vivo; conditions: mice, IT injection, compared with vehicle, ANOVA
Experimental: The effects of the ASICalgin-1 peptide on motor activity were evaluated by means of the accelerating rotarod test. The mice were placed on an axle rotating at four rotations per minute (rpm) which undergoes a constant acceleration of 5 rpm per minute up to 40 rpm. The latency to fall is measured, with a maximum limit of 300 s.

[6] = target: T2, rat heteromeric ASIC1a+ASIC3 channels (Rattus norvegicus, UniProt O35240+P55926); conditions: read-out: concentration inhibiting 50% of the current produced by rat heteromeric ASIC1a+ASIC3 channels; cited from earlier work
T2 sequence (P55926 1-526): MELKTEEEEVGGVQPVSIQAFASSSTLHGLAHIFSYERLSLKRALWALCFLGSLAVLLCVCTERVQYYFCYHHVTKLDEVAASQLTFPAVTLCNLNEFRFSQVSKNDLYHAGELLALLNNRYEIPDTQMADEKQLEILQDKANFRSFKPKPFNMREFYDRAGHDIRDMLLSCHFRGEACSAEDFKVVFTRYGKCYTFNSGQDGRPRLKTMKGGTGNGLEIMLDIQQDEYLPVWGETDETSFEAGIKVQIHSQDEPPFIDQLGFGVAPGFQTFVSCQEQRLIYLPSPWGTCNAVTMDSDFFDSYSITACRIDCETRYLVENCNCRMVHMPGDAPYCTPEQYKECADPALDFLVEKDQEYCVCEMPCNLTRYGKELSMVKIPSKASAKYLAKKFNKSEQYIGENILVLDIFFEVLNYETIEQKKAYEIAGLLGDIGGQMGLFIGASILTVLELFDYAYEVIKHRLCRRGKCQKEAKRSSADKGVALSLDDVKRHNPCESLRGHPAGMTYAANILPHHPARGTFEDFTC
T2 sequence (O35240 1-533): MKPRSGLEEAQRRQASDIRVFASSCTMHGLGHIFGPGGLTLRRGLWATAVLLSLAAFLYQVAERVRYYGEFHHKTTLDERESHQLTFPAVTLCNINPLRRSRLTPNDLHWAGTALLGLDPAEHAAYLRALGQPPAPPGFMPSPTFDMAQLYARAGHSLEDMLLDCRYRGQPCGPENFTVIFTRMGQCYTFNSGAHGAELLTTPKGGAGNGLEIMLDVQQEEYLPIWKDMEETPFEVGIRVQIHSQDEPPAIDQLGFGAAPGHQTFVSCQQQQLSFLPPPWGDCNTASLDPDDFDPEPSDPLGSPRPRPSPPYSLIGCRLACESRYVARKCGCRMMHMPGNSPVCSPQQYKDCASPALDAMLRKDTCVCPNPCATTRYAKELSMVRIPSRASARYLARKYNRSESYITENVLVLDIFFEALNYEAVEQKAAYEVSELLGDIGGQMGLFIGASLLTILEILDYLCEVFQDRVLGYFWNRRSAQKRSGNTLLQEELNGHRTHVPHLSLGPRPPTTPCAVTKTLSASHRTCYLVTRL

[7] = rats, cited from earlier work

For PcTx1, the analgesic effect [1] is listed as “powerful analgesic effect” and the IC50 [2] is listed as 1 nM.
With “LKCYQHGKVVTCHRDMKFCYHNTGMPFRNLKLILQGCSSSCSETENNKCCSTDRCNK (disulfide 3-19, 12-37, 41-49, 50-55) [ASICalgin-1]” the “toxicity: behavior (motor, balance, apathy, paralysis, convulsion), deaths” value (shortened to “toxicity: behavior”) [3] was “induces no modification of behavior”, the “toxicity: behavior” value [4] was “induces no modification of behavior” and the “effect on motor activity, latency to fall” value [5] was “does not induce any significant effect”.
In the case of APETx2, the IC50 [6] is given as 2000 nM, the “analgesic effect on post-operative pain” value ([7]; intra-operative application) is given as “induces an analgesic effect” and the “analgesic effect on inflammatory and acidic pain” value ([7]; peripheral (subcutaneous) injection) is given as “induces an analgesic effect”.
With “LKCFQHGKVVTCHRDMKFCYHNTGMPFRNLKLILQGCSSSCSETENNKCCSTDRCNK (disulfide 3-19, 12-37, 41-49, 50-55) [ASICalgin-2]” the “toxicity: behavior” value [4] was “induces no modification of behavior”.
